Data as given in patent US12391692B2, “Spiro ring-containing quinazoline compound” (WIGEN BIOMEDICINE TECHNOLOGY (SHANGHAI) CO., LTD., priority 2020, dated 2025).

Experiments:
H358 cells = test: Antiproliferative activity against H358 cells (Cell Titer Glow, ultra-low attachment plate); format: cell-based; details: Homo sapiens, NCI-H358, 72 h, three days after addition of compound
Protocol: 2500 H358 cells were seeded in a 96-well ultra-low attachment plate (corning, 7007). After one day of growth, a serially diluted compound (a maximum concentration of 5 μM, 5-fold dilution, a total of five doses) was added. Three days after the addition of the compound, Cell Titer Glow (Promega, G9681) was added to evaluate pellet growth, and the IC50 value was calculated.

pERK level in H358 cells = test: pERK and ERK protein content assay in H358 cells (ELISA); format: cell-based; details: Homo sapiens, NCI-H358, pERK/ERK ratio vs DMSO group, compound 1 μM, 24 h, read-out: Inhibition rate (%)
Protocol: H358 cells were seeded in a 24-well plate. After one day of growth, a test compound (at a concentration of 1 μM) was added. After 24 h of action of the compound, the cells were lysed, and the cell lysate was transferred to a 96-well ELISA plate. The levels of pERK and ERK in the lysate were measured using an ELISA kit (abcam 176660). The ratio of pERK to ERK was calculated and compared with that of the DMSO group, and the percentage of inhibition of pERK activity by the compound was calculated.

Compound | IC50 (H358 cells) | inhibition at 1 µM (pERK level in H358 cells)
C=CC(=O)N1CC2(CCN(c3nc(N4CC(N5CC6(CN(C)C6)C5)C4)nc4c(OCC(F)(F)F)c(-c5c(C)ccc6[nH]ncc56)c(C5CC5)cc34)CC2)C1 [Compound 32] | < 300 nM | > 90%
C=CC(=O)N1CC2(CCN(c3nc(N4CC(N5CC6(CCOCC6)C5)C4)nc4c(OCC(F)(F)F)c(-c5c(C)ccc6[nH]ncc56)c(C5CC5)cc34)CC2)C1 [Compound 33] | 300 to 1000 nM | 50 to 90%
C=CC(=O)N1CC2(CCN(c3nc(N4CC(N5CCC56CC6)C4)nc4c(OCC(F)(F)F)c(-c5c(C)ccc6[nH]ncc56)c(C5CC5)cc34)CC2)C1 [Compound 34] | < 300 nM | > 90%
C=CC(=O)N1CC2(CCN(c3nc(N4CC(N5CCC6(CC6)C5)C4)nc4c(OCC(F)(F)F)c(-c5c(C)ccc6[nH]ncc56)c(C5CC5)cc34)CC2)C1 [Compound 35] | < 300 nM | > 90%
C=CC(=O)N1CC2(CCN(c3nc(N4CC(N5CCC6(CC5)CC6)C4)nc4c(OCC(F)(F)F)c(-c5c(C)ccc6[nH]ncc56)c(C5CC5)cc34)CC2)C1 [Compound 36] | 300 to 1000 nM | 50 to 90%
C=CC(=O)N1CC2(CCN(c3nc(N4CCC(N5CC6(CC6)C5)C4)nc4c(OCC(F)(F)F)c(-c5c(C)ccc6[nH]ncc56)c(C5CC5)cc34)CC2)C1 (centres unmarked) [Compound 37] | < 300 nM | > 90%
C=CC(=O)N1CC2(CCN(c3nc(N4CCC(N5CC6(CC6)C5)CC4)nc4c(OCC(F)(F)F)c(-c5c(C)ccc6[nH]ncc56)c(C5CC5)cc34)CC2)C1 [Compound 38] | 300 to 1000 nM | > 90%
C=CC(=O)N1CC2(CCN(c3nc(N4CC(n5cccc5)C4)nc4c(OCC(F)(F)F)c(-c5c(C)ccc6[nH]ncc56)c(C5CC5)cc34)CC2)C1 [Compound 39] | 300 to 1000 nM | 50 to 90%
C=CC(=O)N1CC2(CCN(c3nc(N4CC(n5cccn5)C4)nc4c(OCC(F)(F)F)c(-c5c(C)ccc6[nH]ncc56)c(C5CC5)cc34)CC2)C1 [Compound 40] | > 1000 nM | 50 to 90%
C=CC(=O)N1CC2(CCN(c3nc(N4CC(n5ccnc5)C4)nc4c(OCC(F)(F)F)c(-c5c(C)ccc6[nH]ncc56)c(C5CC5)cc34)CC2)C1 [Compound 41] | 300 to 1000 nM | 50 to 90%
C=CC(=O)N1CC2(CCN(c3nc(N4CC(n5cncn5)C4)nc4c(OCC(F)(F)F)c(-c5c(C)ccc6[nH]ncc56)c(C5CC5)cc34)CC2)C1 [Compound 42] | > 1000 nM | 50 to 90%
C=CC(=O)N1CC2(CCN(c3nc(N4CC(N5CC=CCC5)C4)nc4c(OCC(F)(F)F)c(-c5c(C)ccc6[nH]ncc56)c(C5CC5)cc34)CC2)C1 [Compound 43] | > 1000 nM | 50 to 90%
C=CC(=O)N1CC2(CCN(c3nc(N4CC(N5CC[C@H](O)C5)C4)nc4c(OCC(F)(F)F)c(-c5c(C)ccc6[nH]ncc56)c(C5CC5)cc34)CC2)C1 [Compound 45] | < 300 nM | > 90%
C=CC(=O)N1CC2(CCN(c3nc(N4CC(C(=O)N5CCN(C)CC5)C4)nc4c(OCC(F)(F)F)c(-c5c(C)ccc6[nH]ncc56)c(C5CC5)cc34)CC2)C1 [Compound 46] | < 300 nM | > 90%
C=CC(=O)N1CC2(CCN(c3nc(N4CC(C(=O)N5CC(N(C)C)C5)C4)nc4c(OCC(F)(F)F)c(-c5c(C)ccc6[nH]ncc56)c(C5CC5)cc34)CC2)C1 [Compound 47] | < 300 nM | > 90%
C=CC(=O)N1CC2(CCN(c3nc(N4CC(C(=O)N5CC6(CN(C)C6)C5)C4)nc4c(OCC(F)(F)F)c(-c5c(C)ccc6[nH]ncc56)c(C5CC5)cc34)CC2)C1 [Compound 48] | 300 to 1000 nM | 50 to 90%
C=CC(=O)N1CC2(CCN(c3nc(N4CC(S(=O)(=O)N5CCN(C)CC5)C4)nc4c(OCC(F)(F)F)c(-c5c(C)ccc6[nH]ncc56)c(C5CC5)cc34)CC2)C1 [Compound 49] | < 300 nM | > 90%
C=CC(=O)N1CC2(CCN(c3nc(N4CC(S(=O)(=O)N5CC(N(C)C)C5)C4)nc4c(OCC(F)(F)F)c(-c5c(C)ccc6[nH]ncc56)c(C5CC5)cc34)CC2)C1 [Compound 50] | 300 to 1000 nM | 50 to 90%
C=CC(=O)N1CC2(CCN(c3nc(N4CC(CC#N)(N(C)C)C4)nc4c(OCC(F)(F)F)c(-c5c(C)ccc6[nH]ncc56)c(C5CC5)cc34)CC2)C1 [Compound 51] | < 300 nM | > 90%

Compound | IC50 (H358 cells) | inhibition at 1 µM (pERK level in H358 cells)
C=CC(=O)N1CC2(CCN(c3nc(N4CC(CC#N)(N(C)CCO)C4)nc4c(OCC(F)(F)F)c(-c5c(C)ccc6[nH]ncc56)c(C5CC5)cc34)CC2)C1 [Compound 52] | < 300 nM | > 90%
C=CC(=O)N1CC2(CCN(c3nc(N4CC(CC#N)(N(C)CCOC)C4)nc4c(OCC(F)(F)F)c(-c5c(C)ccc6[nH]ncc56)c(C5CC5)cc34)CC2)C1 [Compound 53] | < 300 nM | > 90%
C=CC(=O)N1CC2(CCN(c3nc(N4CC(CC#N)(N5CCC5)C4)nc4c(OCC(F)(F)F)c(-c5c(C)ccc6[nH]ncc56)c(C5CC5)cc34)CC2)C1 [Compound 54] | < 300 nM | > 90%
C=CC(=O)N1CC2(CCN(c3nc(N4CC(CC#N)(N5CCCC5)C4)nc4c(OCC(F)(F)F)c(-c5c(C)ccc6[nH]ncc56)c(C5CC5)cc34)CC2)C1 [Compound 55] | < 300 nM | > 90%
C=CC(=O)N1CC2(CCN(c3nc(N4CC(CC#N)(N5CCOCC5)C4)nc4c(OCC(F)(F)F)c(-c5c(C)ccc6[nH]ncc56)c(C5CC5)cc34)CC2)C1 [Compound 56] | < 300 nM | > 90%
C=CC(=O)N1CC2(CCN(c3nc(N4CC(CC#N)(n5ccnc5)C4)nc4c(OCC(F)(F)F)c(-c5c(C)ccc6[nH]ncc56)c(C5CC5)cc34)CC2)C1 [Compound 57] | 300 to 1000 nM | 50 to 90%
C=CC(=O)N1CC2(CCN(c3nc(N4CCC(CC#N)(N5CCC5)CC4)nc4c(OCC(F)(F)F)c(-c5c(C)ccc6[nH]ncc56)c(C5CC5)cc34)CC2)C1 [Compound 58] | < 300 nM | > 90%
C=CC(=O)N1CC2(CCN(c3nc(N4CC(C)(N(C)C)C4)nc4c(OCC(F)(F)F)c(-c5c(C)ccc6[nH]ncc56)c(C5CC5)cc34)CC2)C1 [Compound 59] | < 300 nM | > 90%
C=CC(=O)N1CC2(CCN(c3nc(N4CC(C)(N5CCCC5)C4)nc4c(OCC(F)(F)F)c(-c5c(C)ccc6[nH]ncc56)c(C5CC5)cc34)CC2)C1 [Compound 61] | < 300 nM | > 90%
C=CC(=O)N1CC2(CCN(c3nc(N4CC(C)(CN(C)C)C4)nc4c(OCC(F)(F)F)c(-c5c(C)ccc6[nH]ncc56)c(C5CC5)cc34)CC2)C1 [Compound 62] | < 300 nM | > 90%
C=CC(=O)N1CC2(CCN(c3nc(N4CC(C)(CN5CCC5)C4)nc4c(OCC(F)(F)F)c(-c5c(C)ccc6[nH]ncc56)c(C5CC5)cc34)CC2)C1 [Compound 63] | < 300 nM | > 90%
C=CC(=O)N1CC2(CCN(c3nc(N4CC(C)(CN5CCCC5)C4)nc4c(OCC(F)(F)F)c(-c5c(C)ccc6[nH]ncc56)c(C5CC5)cc34)CC2)C1 [Compound 64] | < 300 nM | > 90%
C=CC(=O)N1CC2(CCN(c3nc(N4CC5(CC5)C4)nc4c(OCC(F)(F)F)c(-c5c(C)ccc6[nH]ncc56)c(C5CC5)cc34)CC2)C1 [Compound 65] | 300 to 1000 nM | 50 to 90%
C=CC(=O)N1CC2(CCN(c3nc(N4CC5(CCC5)C4)nc4c(OCC(F)(F)F)c(-c5c(C)ccc6[nH]ncc56)c(C5CC5)cc34)CC2)C1 [Compound 66] | 300 to 1000 nM | 50 to 90%
C=CC(=O)N1CC2(CCN(c3nc(N4CC5(CCN5C)C4)nc4c(OCC(F)(F)F)c(-c5c(C)ccc6[nH]ncc56)c(C5CC5)cc34)CC2)C1 [Compound 67] | < 300 nM | > 90%
C=CC(=O)N1CC2(CCN(c3nc(N4CC5(CCN5CC(F)(F)F)C4)nc4c(OCC(F)(F)F)c(-c5c(C)ccc6[nH]ncc56)c(C5CC5)cc34)CC2)C1 [Compound 68] | < 300 nM | > 90%
C=CC(=O)N1CC2(CCN(c3nc(N4CC5(CCN5CC5CC5)C4)nc4c(OCC(F)(F)F)c(-c5c(C)ccc6[nH]ncc56)c(C5CC5)cc34)CC2)C1 [Compound 69] | < 300 nM | > 90%
C=CC(=O)N1CC2(CCN(c3nc(N4CC5(CCN5C5CCC5)C4)nc4c(OCC(F)(F)F)c(-c5c(C)ccc6[nH]ncc56)c(C5CC5)cc34)CC2)C1 [Compound 70] | < 300 nM | > 90%
